Experimental data: article PMC7796460, “Relation of Metal-Binding Property and Selective Toxicity of 8-Hydroxyquinoline Derived Mannich Bases Targeting Multidrug Resistant Cancer Cells” (Cancers, 2021)
Like-named read-outs stand apart in the source and are kept apart here.

How the values were obtained:
MES-SA cells [1] = assay: MTT viability assay, MES-SA; type: cell-based, human; conditions: for IC50: Homo sapiens, MES-SA; for Effect of co-administration of CuCl2 on toxicity: parental MES-SA, increasing concentrations of CuCl2, MTT 72 h (Figure 2I-L)
From the text: (§1) MDCK II canine kidney cells, A431 epidermoid carcinoma cells, the human uterine sarcoma cell lines MES-SA and the doxorubicin selected MES-SA-Dx5 were obtained from ATCC (MDCK II: No. CRL-2936™, A431: No. CRL-1555™, MES-SA: No. CRL-1976™, MES-SA/Dx5: No. CRL-1977™). ABCB1 was expressed in A431 and MES-SA cells using lentiviral transduction. The human cervix carcinoma cell line KB-3-1 and the vinblastine selected KB-v1were kind gifts from Dr. Michael M. Gottesman, National Institutes of Health. The phenotype of the resistant cells was verified using cytotoxicity assays. MDCK-B1 and MDCK-MM were established by the Sleeping Beauty transposon-based gene delivery system. OVCAR-8 and NCI-ADRres cells (obtained from the Division of Cancer Treatment and Diagnosis (DCTD) Tumor Repository (National Cancer Institute, Frederick, MD, USA)) were cultivated in RPMI-1640 (Sigma Aldrich, Budapest, Hungary), and other cell lines were cultivated in Dulbecco’s Modified Eagle Medium (DMEM, Sigma Aldrich, Budapest, Hungary), supplemented with 10% fetal bovine serum, 5 mM glutamine, and 50 unit/mL penicillin and streptomycin (Life Technologies, Carlsbad, CA, USA). All cell lines were cultivated at 37 °C, 5% CO2.
(§2) MTT viability assays were performed as described earlier with minor modifications. Briefly, cells were seeded into 96-well tissue culture plates (Sarstedt, Newton, NC, USA/Orange, Braine-l’Alleud, Belgium) at a density of 5000 cells/well and allowed to attach overnight. Test compounds were added to achieve the required final concentration in a final volume of 100 µL per well. After an incubation period of 72 h, the supernatant was removed and fresh medium containing the MTT reagent (0.083 mg/mL) was added. Incubation with MTT at 37 °C was terminated after 1 h by removing the supernatant and lysing the cells with 100 µL DMSO per well. Viability of the cells was measured spectrophotometrically based on the absorbance values at 540 nm using either a Perkin Elmer Victor X3 or an EnSpire microplate reader. Data were background corrected by subtraction of the signal obtained from unstained cell lysates and normalized to untreated cells. Curves were fitted by Prism software (GraphPad Software Inc., San Diego, CA, USA) using the sigmoidal dose-response model (comparing variable and fixed slopes). […] Significance was calculated using unpaired t-tests; results are given as *: p ≤ 0.05, **: p ≤ 0.01, ***: p ≤ 0.001, ****: p ≤ 0.0001.

A431 cells = assay: MTT viability assay, A431; type: cell-based; conditions: Homo sapiens, A-431, 72 h, MTT 72 h
From the text: as §1, §2

MES-SA cells [2] = assay: ROS determination with DCFDA, MES-SA; type: cell-based, human; conditions: 2 h
Procedure: Measurements were performed as described earlier. Briefly, cells were harvested, washed with PBS, and incubated with 10 µM DCFDA in a water bath shaker at 37 °C for 30 min in a density of 3 × 10^6 cells/mL. After washing with PBS, cells were seeded to 96-well plates in PBS in a density of 2 × 10^4 cells/well. Following the measurement of the basal fluorescence, test compounds were added in different concentrations and the fluorescence of the samples was followed at time intervals of 10 min. DCFDA solution in buffer was used as a cell free control to test for interaction of the test compounds with DCFDA. Data were analyzed as fold change of fluorescence compared to basal levels and untreated cells. Significance was calculated using unpaired t-tests; results are given as *: p ≤ 0.05, **: p ≤ 0.01, ***: p ≤ 0.001, ****: p ≤ 0.0001.
Table S3: Characterization of intracellular ROS production with the DCFDA assay for P -gp negative MES-SA and P-gp positive MES-SA/Dx5 cells. Fold changes in fluorescence are shown after a 2 h with the investigated 8 -hydroxyquinoline ligands. Data S-refer to Figure 7 and allow […]
concentration range from 6.25µ M to 50µ M. Fold change of fluorescence obtained in the presence of 5 mM NAC is given in brackets.

MES-SA/B1 cells = assay: TXRF intracellular iron levels, MES-SA/B1; type: cell-based, human; conditions: for Intracellular iron levels: MES-SA/B1, 25 µM holo-transferrin 4 h, then 5 µM ligand 8 h (Figure 4A)
Procedure: Cells were seeded to 6-well plates in a density of 1.5 Mio cells/well and allowed to attach overnight. Following a washing step with phosphate buffered saline (PBS), cells were incubated in serum free DMEM. For the iron-level measurements, cells were preloaded with 25 µM holo-transferrin for 4 h and, after a washing step with serum free DMEM, cells were incubated with 5 µM of each ligand for 8 h. For the detection of copper levels, cells were treated with 1 µM of the ligands in the presence of 5 µM CuCl2 for 4 h. Following incubation, cells were harvested upon trypsination, washed twice with PBS, counted and the resulting pellets were digested in 20 μL of 30% H2O2, 80 μL of 65% HNO3. 10 μL of 15 µg/mL Ga(NO3)3 (in nitric acid) was added as an internal standard upon digestion for 24 h at room temperature. From the resulting solutions, 2 μL were pipetted on the quartz reflectors used for total-reflection X-ray fluorescence (TXRF) analysis. For the determination of the intracellular Cu content, the TXRF method was used as previously reported. Briefly, all determinations were performed on an Atomika 8030C TXRF spectrometer (Atomika Instruments GmbH, Oberschleissheim, Germany). The stock solution of 1000 mg/L Ga was purchased from Merck (Darmstadt, Germany). The Kα line used for determination of Fe and Cu were at 6.403 and 8.047 keV. […] Significance was calculated using unpaired t-tests; results are given as *: p ≤ 0.05, **: p ≤ 0.01, ***: p ≤ 0.001, ****: p ≤ 0.0001.
Figure 4 Effect of the compounds on intracellular metal levels. (A) Iron levels of MES-SA (open columns) and MES-SA/B1 cells in absence (dark red squared columns) and presence of Pgp inhibitor Tariquidar (bright red squared columns). Cells were loaded with 25 µM holo-transferrin (4 h), followed by an incubation (8 h) without (ctr) or with 5 µM of ligands Q-1, Q-2, Q-3, and Q-4. […] (B) Cellular copper levels measured following a 4 h co-administration of compounds Q-1, Q-2, Q-3, and Q-4 (1 µM) and CuCl2 (5 µM) in MES-SA (open columns), MES-SA/Dx5 (filled columns) and MES-SA-B1 (squared columns) cells. Significance is given as *: p ≤ 0.05, **: p ≤ 0.01, ***: p ≤ 0.001.

[3] = MTT 72 h, absence of Tariquidar, read-out: IC50 MES-SA
[4] = Table 2, value outside brackets, read-out: MES-SA (toxicity, Table 2)
[5] = presence of 1 µM Tariquidar (values in brackets)
[6] = 6.25 µM, presence of 5 mM NAC (brackets)
[7] = 12.5 µM, presence of 5 mM NAC (brackets)
[8] = 25 µM, presence of 5 mM NAC (brackets)
[9] = 50 µM, presence of 5 mM NAC (brackets)

Row | Compound | IC50 (MES-SA cells [1]; [3]) | IC50 (MES-SA cells [1]; [4]) | Effect of co-administration of CuCl2 on toxicity (MES-SA cells [1]) | IC50 (A431 cells; absence of Tariquidar) | IC50 (A431 cells; [5]) | Fold change in fluorescence (DCFDA) (MES-SA cells [2]; 6.25 µM) | Fold change in fluorescence (DCFDA) (MES-SA cells [2]; [6]) | Fold change in fluorescence (DCFDA) (MES-SA cells [2]; 12.5 µM) | Fold change in fluorescence (DCFDA) (MES-SA cells [2]; [7]) | Fold change in fluorescence (DCFDA) (MES-SA cells [2]; 25 µM) | Fold change in fluorescence (DCFDA) (MES-SA cells [2]; [8]) | Fold change in fluorescence (DCFDA) (MES-SA cells [2]; 50 µM) | Fold change in fluorescence (DCFDA) (MES-SA cells [2]; [9]) | Intracellular iron levels (MES-SA/B1 cells) | Intracellular iron depletion in the presence of the Pgp inhibitor TQ (MES-SA/B1 cells; MES-SA/B1, 5 µM ligand 8 h, with Tariquidar)
1 | Oc1c(CN2CCCCC2)ccc2cccnc12 [Compound Q-3, 7-(piperidin-1-ylmethyl)quinolin-8-ol] | 4.11 ± 1.2 µM | 4.11 ± 1.2 µM | selective increase in sensitivity | 3.91 ± 0.83 µM | 4.09 µM | 1.288± 0.24 | 1.097± 0.11 | 1.372± 0.22 | 1.080± 0.27 | 1.464± 0.39 | 1.119± 0.24 | 1.753± 0.37 | 1.054± 0.25 | drop of intracellular iron levels below baseline levels | 
2 | Oc1c(CNCc2ccccc2F)cc(Cl)c2cccnc12 [Compound Q-4, 5-chloro-7-((2-fluorobenzylamino)methyl)quinolin-8-ol] | 2.75 ± 0.46 µM | 2.75 ± 0.46 µM | selective increase in sensitivity | 5.82 ± 1.15 µM | 4.54 µM | 1.207± 0.20 | 1.030± 0.16 | 1.190± 0.14 | 1.033± 0.21 | 1.187± 0.29 | 0.985± 0.12 | 1.151± 0.19 | 1.040± 0.17 | marked, selective iron depletion | abrogated
3 | Oc1cccc2cccnc12 [Compound Q-1, 8-Hydroxyquinoline] | 4.19 ± 0.74 µM | 4.19 ± 0.74 µM | increased the toxicity | 2.35 ± 0.92 µM | 2.9 µM | 0.965± 0.12 | 1.261± 0.26 | 0.799± 0.12 | 1.148± 0.32 | 0.722± 0.22 | 1.193± 0.44 | 0.748± 0.21 | 0.912± 0.38 | negligible | 
4 | Oc1c(CN2CCOCC2)ccc2cccnc12 [Compound Q-2, 7-(morpho-lino-methyl)quinolin-8-ol] | 6.97 ± 1.75 µM | 6.97 ± 1.75 µM | increased the toxicity | 3.31 ± 1.61 µM | 3.18 µM | 1.598± 0.32 | 1.096± 0.16 | 1.792± 0.53 | 0.930± 0.16 | 2.101± 0.86 | 0.988± 0.15 | 2.454± 1.39 | 0.946± 0.14 |  | 
